{"source": "patent US9169254B2", "about": "“Spiroimidazolone derivative” (Chugai Seiyaku Kabushiki Kaisha, priority 2009, dated 2015)"}
{"target": "T1, human PTH1 receptor (Homo sapiens, UniProt Q03431)", "T1 sequence (Q03431 27-593)": "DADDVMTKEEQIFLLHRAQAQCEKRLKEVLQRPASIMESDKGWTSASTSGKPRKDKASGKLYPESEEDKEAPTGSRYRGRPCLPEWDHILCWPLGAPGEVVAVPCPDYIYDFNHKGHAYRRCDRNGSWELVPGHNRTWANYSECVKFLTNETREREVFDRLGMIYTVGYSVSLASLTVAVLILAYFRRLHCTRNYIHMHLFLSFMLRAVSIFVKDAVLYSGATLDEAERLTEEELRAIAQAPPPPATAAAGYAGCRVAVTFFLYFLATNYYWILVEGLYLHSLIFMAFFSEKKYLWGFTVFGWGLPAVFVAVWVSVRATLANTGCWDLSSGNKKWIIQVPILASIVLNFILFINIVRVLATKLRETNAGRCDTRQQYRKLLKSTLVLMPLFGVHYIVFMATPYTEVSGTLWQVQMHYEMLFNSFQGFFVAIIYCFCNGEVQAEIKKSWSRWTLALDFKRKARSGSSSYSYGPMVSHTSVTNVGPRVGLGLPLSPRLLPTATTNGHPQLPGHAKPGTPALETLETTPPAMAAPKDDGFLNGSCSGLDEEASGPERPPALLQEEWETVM", "assay": "In vitro cAMP signal activity in HKRK-B7 cells (LLC-PK1 cells overexpressing the human PTH1 receptor)", "format": "cell-based", "details": "HKRK-B7 cells; compound at 1×10^−3 M; cAMP produced as percentage of that produced by hPTH(1-34) at 100 nM", "units": {"cAMP production activity (%)": "%"}}
{"compound": "Cc1cc(C(=O)N2CCC(C)(O)CC2)cc(C)c1/C=C/S(=O)(=O)N1CCC2(CC1)N=C(c1ccc(OCCCC(F)(F)C(F)(F)F)c(C(F)(F)F)c1)NC2=O", "note": "[Compound 1202, 8-{(E)-2-[4-(4-hydroxy-4-methyl-piperidine-1-carbonyl)-2,6-dimethyl-phenyl]-ethenesulfonyl}-2-[4-(4,4,5,5,5-pentafluoro-pentyloxy)-3-trifluoromethyl-phenyl]-1,3,8-triaza-spiro[4.5]dec-1-en-4-one]", "cAMP production activity (%)": 91}
{"compound": "Cc1cc(C(=O)N2CCC(C)(O)CC2)cc(C)c1/C=C/S(=O)(=O)N1CCC2(CC1)N=C(c1ccc(OCC(F)(F)C(F)(F)F)c(C(F)(F)F)c1)NC2=O", "note": "[Compound 1203, 8-{(E)-2-[4-(4-hydroxy-4-methyl-piperidine-1-carbonyl)-2,6-dimethyl-phenyl]-ethenesulfonyl}-2-[4-(2,2,3,3,3-pentafluoro-propoxy)-3-trifluoromethyl-phenyl]-1,3,8-triaza-spiro[4.5]dec-1-en-4-one]", "cAMP production activity (%)": 90}
{"compound": "Cc1cc(C(=O)N2CCC(C)(O)CC2)cc(C)c1/C=C/S(=O)(=O)N1CCC2(CC1)N=C(c1ccc(OCCCC(F)(F)F)c(C(F)(F)F)c1)NC2=O", "note": "[Compound 1204, 8-{(E)-2-[4-(4-hydroxy-4-methyl-piperidine-1-carbonyl)-2,6-dimethyl-phenyl]-ethenesulfonyl}-2-[4-(4,4,4-trifluoro-butoxy)-3-trifluoromethyl-phenyl]-1,3,8-triaza-spiro[4.5]dec-1-en-4-one]", "cAMP production activity (%)": 83}
{"compound": "Cc1cc(C(=O)N2CCC(C)(O)CC2)cc(C)c1/C=C/S(=O)(=O)N1CCC2(CC1)N=C(c1cccc(COc3cccc(C(F)(F)F)c3)c1)NC2=O", "note": "[Compound 1205, 8-{(E)-2-[4-(4-hydroxy-4-methyl-piperidine-1-carbonyl)-2,6-dimethyl-phenyl]-ethenesulfonyl}-2-[3-(3-trifluoromethyl-phenoxymethyl)-phenyl]-1,3,8-triaza-spiro[4.5]dec-1-en-4-one]", "cAMP production activity (%)": 83}
{"compound": "Cc1cc(C(=O)N2CCC(C)(O)CC2)cc(C)c1/C=C/S(=O)(=O)N1CCC2(CC1)N=C(c1cccc(C(C)(F)F)c1)NC2=O", "note": "[Compound 1206, 2-[3-(1,1-difluoro-ethyl)-phenyl]-8-{(E)-2-[4-(4-hydroxy-4-methyl-piperidine-1-carbonyl)-2,6-dimethyl-phenyl]-ethenesulfonyl}-1,3,8-triaza-spiro[4.5]dec-1-en-4-one]", "cAMP production activity (%)": 88}
{"compound": "Cc1cc(C(=O)N2CCC(C)(O)CC2)cc(C)c1/C=C/S(=O)(=O)N1CCC2(CC1)N=C(c1ccc(OCCCC(F)(F)C(F)(F)F)c(F)c1)NC2=O", "note": "[Compound 1207, 2-[3-fluoro-4-(4,4,5,5,5-pentafluoro-pentyloxy)-phenyl]-8-{(E)-2-[4-(4-hydroxy-4-methyl-piperidine-1-carbonyl)-2,6-dimethyl-phenyl]-ethenesulfonyl}-1,3,8-triaza-spiro[4.5]dec-1-en-4-one]", "cAMP production activity (%)": 112}
{"compound": "Cc1cc(C(=O)N2CCC(C)(O)CC2)cc(C)c1/C=C/S(=O)(=O)N1CCC2(CC1)N=C(c1ccc3cc[nH]c3c1)NC2=O", "note": "[Compound 1208, 8-{(E)-2-[4-(4-hydroxy-4-methyl-piperidine-1-carbonyl)-2,6-dimethyl-phenyl]-ethenesulfonyl}-2-(1H-indol-6-yl)-1,3,8-triaza-spiro[4.5]dec-1-en-4-one]", "cAMP production activity (%)": 65}
{"compound": "Cc1cc(C(=O)N2CCC(C)(O)CC2)cc(C)c1/C=C/S(=O)(=O)N1CCC2(CC1)N=C(c1ccc(C(F)(F)F)c(OC(C)(C)C(F)(F)F)c1)NC2=O", "note": "[Compound 1209, 8-{(E)-2-[4-(4-hydroxy-4-methyl-piperidine-1-carbonyl)-2,6-dimethyl-phenyl]-ethenesulfonyl}-2-[3-(2,2,2-trifluoro-1,1-dimethyl-ethoxy)-4-trifluoromethyl-phenyl]-1,3,8-triaza-spiro[4.5]dec-1-en-4-one]", "cAMP production activity (%)": 94}
